Measured values taken from PubChem BioAssay AID2060488 (Molecular Pharmacology Branch, DTP, NCI, 2025).
pIC50: −log10 of the molar value.

Test system: 966289-007-R4-J1-PDC complex spheroid viability
Test: Anticancer human tumor 966289-007-R4-J1-PDC patient-derived pancreatic adenocarcinoma cell line growth inhibition [GQUAD]
Conditions: for pIC50: curve of first compound; for viability, T/C: stronger effect = lower value; active means viability on the fitted dose curve at most 10% of control; inactive means the rest
Outline: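 Viability of tumor cells grown as complex spheroids with endothelial and stromal cells, exposed to drug combinations. Top concentration at or near clinical Cmax (else 10 microM), diluted in half-log increments.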

[1] = second compound 0.0316 µM, first compound 0.0316 µM
[2] = second compound 0.0316 µM, first compound 0.1 µM
[3] = second compound 0.0316 µM, first compound 0.316 µM
[4] = second compound 0.0316 µM, first compound 1 µM
[5] = second compound 0.0316 µM, first compound 3.16 µM
[6] = second compound 0.0316 µM, first compound 10 µM
[7] = second compound 0.1 µM, first compound 0.0316 µM
[8] = second compound 0.1 µM, first compound 0.1 µM
[9] = second compound 0.1 µM, first compound 0.316 µM
[10] = second compound 0.1 µM, first compound 1 µM
[11] = second compound 0.1 µM, first compound 3.16 µM
[12] = second compound 0.1 µM, first compound 10 µM
[13] = second compound 0.316 µM, first compound 0.0316 µM
[14] = second compound 0.316 µM, first compound 0.1 µM
[15] = second compound 0.316 µM, first compound 0.316 µM
[16] = second compound 0.316 µM, first compound 1 µM
[17] = second compound 0.316 µM, first compound 3.16 µM
[18] = second compound 0.316 µM, first compound 10 µM
[19] = second compound 1 µM, first compound 0.0316 µM
[20] = second compound 1 µM, first compound 0.1 µM
[21] = second compound 1 µM, first compound 0.316 µM
[22] = second compound 1 µM, first compound 1 µM
[23] = second compound 1 µM, first compound 3.16 µM
[24] = second compound 1 µM, first compound 10 µM
[25] = second compound 3.16 µM, first compound 0.0316 µM
[26] = second compound 3.16 µM, first compound 0.1 µM
[27] = second compound 3.16 µM, first compound 0.316 µM
[28] = second compound 3.16 µM, first compound 1 µM
[29] = second compound 3.16 µM, first compound 3.16 µM
[30] = second compound 3.16 µM, first compound 10 µM
[31] = second compound 10 µM, first compound 0.0316 µM
[32] = second compound 10 µM, first compound 0.1 µM
[33] = second compound 10 µM, first compound 0.316 µM
[34] = second compound 10 µM, first compound 1 µM
[35] = second compound 10 µM, first compound 3.16 µM
[36] = second compound 10 µM, first compound 10 µM
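Further: spheroids exposed to the agents for seven days before readout.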
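Wherever viability, T/C is given: percent viability relative to DMSO vehicle control wells taken as 100%.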

C#Cc1c(F)ccc2cc(O)cc(-c3ncc4c(N5CC6CCC(C5)N6)nc(OCC56CCCN5CC(F)C6)nc4c3F)c12 (stereo unspecified) + CN(C)c1ccc(Nc2c3ccc(NC(=O)CCN4CCCC4)cc3nc3cc(NC(=O)CCN4CCCC4)ccc23)cc1
inactive: viability, T/C [1] 103% | viability, T/C [2] 88.4% | viability, T/C [3] 98.5% | viability, T/C [4] 86.7% | viability, T/C [5] 95.9% | viability, T/C [6] 93.5% | viability, T/C [7] 96.8% | viability, T/C [8] 84.4% | viability, T/C [9] 94.5% | viability, T/C [10] 89% | viability, T/C [11] 90.7% | viability, T/C [12] 96% | viability, T/C [13] 98.2% | viability, T/C [14] 91.2% | viability, T/C [15] 105% | viability, T/C [16] 96.3% | viability, T/C [17] 95.2% | viability, T/C [18] 103% | viability, T/C [19] 87.9% | viability, T/C [20] 89.9% | viability, T/C [21] 98.8% | viability, T/C [22] 96.8% | viability, T/C [23] 95.5% | viability, T/C [24] 102% | viability, T/C [25] 88.5% | viability, T/C [26] 91.1% | viability, T/C [27] 96.8% | viability, T/C [28] 99.4% | viability, T/C [29] 104% | viability, T/C [30] 68.7% | viability, T/C [31] 104% | viability, T/C [32] 106% | viability, T/C [33] 103% | viability, T/C [34] 85% | viability, T/C [35] 16.1%
5.75: pIC50 (second compound 10 µM)
active: viability, T/C [36] 0.99%
< 5.00: pIC50 (second compound 0.0316 µM) | pIC50 (second compound 0.1 µM) | pIC50 (second compound 0.316 µM) | pIC50 (second compound 1 µM) | pIC50 (second compound 3.16 µM)

CC(=O)O[C@H]1C(=O)[C@@]2(C)[C@H]([C@H](OC(=O)c3ccccc3)[C@]3(O)C[C@H](OC(=O)[C@H](O)[C@@H](NC(=O)c4ccccc4)c4ccccc4)C(C)=C1C3(C)C)[C@]1(OC(C)=O)CO[C@@H]1C[C@@H]2O + CN(C)c1ccc(Nc2c3ccc(NC(=O)CCN4CCCC4)cc3nc3cc(NC(=O)CCN4CCCC4)ccc23)cc1
active: viability, T/C [1] 6.18% | viability, T/C [2] 3.03% | viability, T/C [3] 4.68% | viability, T/C [4] 5.91% | viability, T/C [5] 9.45% | viability, T/C [6] 14.6% | viability, T/C [7] 6.28% | viability, T/C [8] 3.31% | viability, T/C [9] 4.65% | viability, T/C [10] 7.21% | viability, T/C [11] 8.08% | viability, T/C [12] 13.5% | viability, T/C [13] 6.93% | viability, T/C [14] 3.41% | viability, T/C [15] 4.38% | viability, T/C [16] 6.89% | viability, T/C [17] 8.86% | viability, T/C [18] 12.6% | viability, T/C [19] 6.47% | viability, T/C [20] 3.38% | viability, T/C [21] 4.34% | viability, T/C [22] 6.41% | viability, T/C [23] 9.91% | viability, T/C [24] 12% | viability, T/C [25] 5.06% | viability, T/C [26] 3.06% | viability, T/C [27] 4.72% | viability, T/C [28] 6.71% | viability, T/C [29] 7.72% | viability, T/C [30] 11.3% | viability, T/C [31] 3.86% | viability, T/C [32] 2.35% | viability, T/C [33] 3.67% | viability, T/C [34] 4.43% | viability, T/C [35] 6.04% | viability, T/C [36] 6.46%
> 7.50: pIC50 (second compound 0.0316 µM) | pIC50 (second compound 0.1 µM) | pIC50 (second compound 0.316 µM) | pIC50 (second compound 1 µM) | pIC50 (second compound 3.16 µM) | pIC50 (second compound 10 µM)

CCCS(=O)(=O)Nc1ccc(F)c(C(=O)c2c[nH]c3ncc(-c4ccc(Cl)cc4)cc23)c1F + CN(C)c1ccc(Nc2c3ccc(NC(=O)CCN4CCCC4)cc3nc3cc(NC(=O)CCN4CCCC4)ccc23)cc1
5.16: pIC50 (second compound 1 µM)
active: viability, T/C [30] 7.98% | viability, T/C [36] 0.53%
inactive: viability, T/C [1] 99.4% | viability, T/C [2] 97.3% | viability, T/C [3] 109% | viability, T/C [4] 103% | viability, T/C [5] 104% | viability, T/C [6] 30.5% | viability, T/C [7] 100% | viability, T/C [8] 101% | viability, T/C [9] 99.3% | viability, T/C [10] 102% | viability, T/C [11] 107% | viability, T/C [12] 30.8% | viability, T/C [13] 100% | viability, T/C [14] 105% | viability, T/C [15] 103% | viability, T/C [16] 106% | viability, T/C [17] 102% | viability, T/C [18] 31.8% | viability, T/C [19] 92.2% | viability, T/C [20] 104% | viability, T/C [21] 109% | viability, T/C [22] 108% | viability, T/C [23] 103% | viability, T/C [24] 24.4% | viability, T/C [25] 99.8% | viability, T/C [26] 99.9% | viability, T/C [27] 110% | viability, T/C [28] 104% | viability, T/C [29] 93.4% | viability, T/C [31] 103% | viability, T/C [32] 102% | viability, T/C [33] 106% | viability, T/C [34] 103% | viability, T/C [35] 17.2%
5.25: pIC50 (second compound 3.16 µM)
5.69: pIC50 (second compound 10 µM)
5.13: pIC50 (second compound 0.0316 µM) | pIC50 (second compound 0.1 µM) | pIC50 (second compound 0.316 µM)
